From US9932300B2, “N,N′-diarylurea compounds and N,N′-diarylthiourea compounds as inhibitors of translation initiation” (President and Fellows of Harvard College, priority 2009, dated 2018)

System: eIF2-GTP-Met-tRNAi ternary complex
Experiment: Ternary complex assay (dual luciferase, firefly/renilla ratio) in stable KLN-tTA/pBISA-DL(ATF-4) cells; HTS and hit confirmation
Format: cell-based, mouse
Design: Activity 10 uM / Activity 2.5 uM / Activity 5 uM: unit not given here
Conditions: confirmed hits of the screen (Table 5); for Activity 2.5 uM: compound at 2.5 uM; for Activity 10 uM: compound at 10 uM; for Activity 5 uM: compound at 5 uM

SMILES | Activity 2.5 uM | Activity 10 uM | Activity 5 uM
COc1ccc([N+](=O)[O-])c(C(OC(C)=O)OC(C)=O)c1OC(C)=O [Compound 95832] | 0.46 | 3.2 | 
ClCCN(CCCl)c1ccc(C2N(Cc3ccccc3)c3ccccc3N2Cc2ccccc2)cc1 [Compound 96306] |  | 5.7 | 2.2
CN(CCCl)c1ccc(C2N(Cc3ccccc3)c3ccccc3N2Cc2ccccc2)cc1 [Compound 96375] |  | 5.9 | 2
CN(C)c1ccc(/C=C/c2nc3ccccc3[nH]2)cc1 [Compound 96942] | 4.17 | 7.54 | 
CCCCCCCCCCCCCCCCCC[S+](C)CC.[I-] (stereo not shown) [Compound 97372] | 1.62 | 4.98 | 
Cl.Nc1cc2ccccc2c2c1ccc1ccccc12 [Compound 97681] | 1.17 | 8.98 | 
COc1ccc(C2(C)C(C#N)(C#N)C2(C#N)C#N)cc1 [Compound 98409] |  | 25.659 | 10.997
NP(Br)(c1ccccc1)(c1ccccc1)c1ccccc1 [Compound 99047] |  | 13.186 | 14.82
Oc1c(Cl)cc(Cl)cc1C1N(Cc2ccc(N(CCCl)CCCl)cc2)CCCN1Cc1ccc(N(CCCl)CCCl)cc1 [Compound 99639] | 0.7 | 8.32 | 
COc1ccc(C2=Cc3ccc(OC(C)=O)cc3OC2)cc1 [Compound 99696] |  | 3.4275 | 3.031
O=C(c1ccccc1)c1coc(-c2ccccc2)c1 [Compound 100239] |  | 7.6705 | 6.748
CCCCc1ccc2nc3cc4ccccc4cc3nc2c1 [Compound 100622] | 2.25 | 3.12 | 
COc1ccc(-c2cc3ccccc3[nH]2)cc1 [Compound 101082] |  | 5.896 | 4.772
Cc1ccc(-c2nc(-c3ccc(N=Cc4ccc(N(CCCl)CCCl)cc4C)cc3)cs2)cc1.Cl [Compound 101484] |  | 3.4 | 2.4
CCC(=O)Oc1c(Br)cc(C=O)cc1OC [Compound 101539] |  | 6.8175 | 14.033
C(=Nc1cnc2ccccc2c1)c1ccccn1 [Compound 101544] |  | 3.1185 | 2.767
CC(=O)OCC(OC(C)=O)C(OC(C)=O)C(/C=C/N=[N+]([O-])c1ccccc1)OC(C)=O (stereo not shown) [Compound 102003] | 0.42 | 9.46 | 
CC[CH2][Pb]([CH2]CC)([CH2]CC)[O]C(C)=O [Compound 102516] |  | 3.4 | 
CC(=O)N(C)c1ccc(/C=C2\C=Cc3ccccc32)cc1 [Compound 103749] | 2.76 | 5.25 | 
COC1=C2C=[N+](C)C3C(=C2C=CC1OC)Cc1cc2c(cc13)OCO2.O=[N+](O)O (stereo not shown) [Compound 103755] |  | 3.394 | 3.09

SMILES | Activity 2.5 uM | Activity 10 uM | Activity 5 uM
Ic1ccc(/C=N/Nc2nnc(N/N=C/c3ccc(I)cc3)c3ccccc23)cc1 [Compound 103842] |  | 3.3 | 2.6
O=C(Nc1cccc(Cl)c1)Nc1cc(C(F)(F)F)ccc1Cl [Compound 104498] |  | 8.4845 | 6.367
NC(=S)N/N=C\c1ncnc2ccccc12 [Compound 104959] |  | 5.474 | 5.19
O=C1C(c2c[nH]c3ccccc23)=Nc2ccc(Br)cc21 [Compound 105326] | 9.56 |  | 
Nc1ccc(N=Nc2ccccc2Cl)c(N)n1 [Compound 106208] |  | 4.3 | 1.8
Cc1ccc2nn(-c3ccc(O)cc3)nc2c1 [Compound 106291] | 2.7 | 3.15 | 
CCc1ccc(N=Nc2ccc(N(C)C)cc2)cc1 [Compound 106343] |  | 4.1 | 2.6
CCc1ccc(N=Nc2ccccc2)cc1 [Compound 106344] |  | 4.1 | 3.1
CCc1ccc(N=Nc2ccc(Br)cc2)cc1 [Compound 106378] | 2.55 | 3.69 | 
Cc1ccc(N=NC2C(=O)c3ccccc3C2=O)cc1 [Compound 106656] | 1.89 | 3.26 | 
C[C@]12CC[C@@H]3c4ccc(Oc5nc(N6CC6)nc(N6CC6)n5)cc4CC[C@H]3[C@@H]1CCC2=O [Compound 106909] |  | 3.4 | 1.2
C=CC(C)(C)c1c(OC(C)=O)cc2oc3c(OC(C)=O)c(OC(C)=O)cc(CC=C(C)C)c3c(=O)c2c1O [Compound 107229] | 1.06 | 3.14 | 
COc1cccc(N=Nc2ccc(N(C)C)cc2)c1 [Compound 108310] | 3.62 | 4.88 | 
CC(C)(C)NC/C(=C\c1ccccc1)C(=O)c1ccccc1 [Compound 109156] |  | 9.1 | 6.2
CCN(CC)CCCNc1c2ccccc2nc2ccccc12.Cl.Cl [Compound 109326] | 0.69 | 17.89 | 
Cc1cc(N(C)C)cc(C)c1C(=Nc1ccc(N=C(NO)c2c(C)cc(N(C)C)cc2C)cc1)NO.Cl [Compound 109535] |  | 6.3 | 3.9
Clc1ccc(-c2cc(C3CO3)c3cc(Cl)cc(Cl)c3n2)cc1 (stereo not shown) [Compound 112369] |  | 3.1 | 1.4
c1ccc(-c2cc3ccccc3[nH]2)nc1 [Compound 112668] |  | 3.3905 | 2.854
CC(=O)Oc1cccc2cc3cc(C)cc(OC(C)=O)c3c(OC(C)=O)c12 [Compound 112921] | 97.42 | 242.82 | 
c1ccc2c(c1)cnc1cc3c(cc12)ncc1ccccc13 [Compound 113085] | 3.18 | 5.05 | 

SMILES | Activity 2.5 uM | Activity 10 uM | Activity 5 uM
CCOC(=O)c1ccc(Nc2nc3ccccc3o2)cc1 [Compound 114995] | 2.69 | 3.43 | 
c1ccc(N=Nc2ccc[nH]2)cc1 [Compound 115157] |  | 40.7 | 7.1
Cc1ccc([P+](Cc2ccccc2)(c2ccccc2)c2ccc(C)cc2)cc1 [Compound 116685] |  | 4.5 | 1.9
CN1c2ccc(Br)c[c]2[Sn]([CH3])([CH3])[c]2cc(Br)ccc21 [Compound 118026] |  | 40.338 | 37.512
CN1c2cccc[c]2[Sn]([CH3])([CH3])[c]2ccccc21 [Compound 118028] |  | 4.1 | 
CSC1=CC(=O)C=C(C)C1=O [Compound 119026] |  | 12.6 | 4
CCN1/C(=C\c2ccc3cc(C)ccc3[n+]2CC)[Se]c2ccccc21.[I-] [Compound 119675] | 5.52 | 8.78 | 
Oc1ccccc1/C=N\N=C\c1ccco1 [Compound 119688] |  | 3.9 | 2.45
CC(C)c1ccc(/C=C2\C=Cc3ccccc32)cc1 [Compound 120440] |  | 3.8 | 2.3
CC(=O)Oc1ccccc1/C=C/NC(=O)OC(C)(C)C [Compound 122241] |  | 5 | 3.2
CCCCCCCCCCCCCCCCCC[n+]1cccc(C(=O)c2ccccc2)c1.[Br-] [Compound 122844] | 1.77 | 13.27 | 
CCCCCCCC(=O)[O][Hg][c]1ccccc1 [Compound 122854] |  | 3.2 | 
CC(C)=CCC1=CC(=O)c2ccccc2C1=O [Compound 123507] |  | 10.5 | 2.41
CN(C)CC1CC2C3CC=C4CC(O)CCC4(C)C3CCC2(C)C1=O (stereo not shown) [Compound 124738] | 0.79 | 3.7 | 
O=C(CCl)Nc1ccc(O)c2ccccc12 [Compound 125369] | 1.08 | 9.98 | 
CCC[CH2][Sn]([CH2]CCC)([CH2]CCC)[CH2]C(C)(C)c1ccccc1 [Compound 126650] | 0.64 | 8.04 | 
CCOC(=N)c1cn(C2OC(CO)C(O)C2O)c2nc[nH]c(=O)c12.Cl (stereo not shown) [Compound 128665] | 17.83 | 3.18 | 
O=[N+]([O-])c1cc(Cl)ccc1NC(Nc1ccc(Cl)cc1[N+](=O)[O-])C(Cl)(Cl)Cl [Compound 130140] | 0.74 | 19.67 | 
